Active and inactive are the calls of the source. Cut-off read from the data, not from the text of the source, for most assays here: actives have a measured EC50 and inactives only a lower limit.
Legend:
[1] = luciferase reporter signal suppression in cells – H4 neuroglioma cells, luminescence, dose response (AID 1990); format: functional, cell-based
[2] = Luminescence Cell-Based Dose Response HTS to Identify Inhibitors of 5'UTR Stem-Loop Driven Prion Protein mRNA Translation in H4 Neuroglioblastoma Cells. [Related pubchem assays: 1827 (Project Summary), 1813 (Primary HTS)]; format: functional
[3] = alpha-synuclein stem-loop luciferase translation blockers – H4 neuroglioma cells, luminescence, confirmation (AID 1988); format: functional, cell-based
[4] = target: T1, Corticotropin-releasing factor receptor 2/Corticotropin-releasing factor-binding protein (Homo sapiens, UniProt P24387+Q13324); test: Dose Response confirmation of uHTS hits for small molecule antagonists of the CRF-binding protein and CRF-R2 receptor complex.; format: functional; details: read-out: IC50_Mean
T1 sequence (Q13324 whole entry): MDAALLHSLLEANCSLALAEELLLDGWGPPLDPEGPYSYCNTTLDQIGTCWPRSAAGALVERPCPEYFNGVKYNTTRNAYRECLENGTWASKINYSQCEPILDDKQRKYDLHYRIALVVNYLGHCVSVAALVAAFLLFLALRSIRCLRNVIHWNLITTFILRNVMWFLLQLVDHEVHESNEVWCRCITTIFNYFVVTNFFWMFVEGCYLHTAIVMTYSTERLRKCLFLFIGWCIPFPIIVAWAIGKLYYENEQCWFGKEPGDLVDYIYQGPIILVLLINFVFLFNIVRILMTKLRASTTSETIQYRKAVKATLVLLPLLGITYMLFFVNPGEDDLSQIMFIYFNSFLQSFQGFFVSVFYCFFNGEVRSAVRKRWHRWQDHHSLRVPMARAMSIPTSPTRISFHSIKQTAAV
T1 sequence (P24387 whole entry): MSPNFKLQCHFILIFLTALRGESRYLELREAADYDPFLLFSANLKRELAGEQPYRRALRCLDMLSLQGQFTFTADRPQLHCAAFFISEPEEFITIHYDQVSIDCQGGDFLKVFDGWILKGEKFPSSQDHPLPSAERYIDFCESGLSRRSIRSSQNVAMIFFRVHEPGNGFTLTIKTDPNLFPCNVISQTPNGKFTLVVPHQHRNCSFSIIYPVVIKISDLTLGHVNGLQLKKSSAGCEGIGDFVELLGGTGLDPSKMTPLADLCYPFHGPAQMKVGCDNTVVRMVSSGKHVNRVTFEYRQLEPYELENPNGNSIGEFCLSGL

[5] = target: T1, Corticotropin-releasing factor receptor 2/Corticotropin-releasing factor-binding protein; test: activators of CRF receptor 2 with binding protein – uHTS hits, confirmation (AID 602473); format: functional; details: read-out: EC50_Mean
[6] = viability of uninfected HEp-2 cells – cell-based, HTS, cytotoxicity control for RSV inhibitor project, dose response (AID 2410); format: functional; details: human respiratory syncytial virus
[7] = system: INS1; test: INS-1E survival protection against cytokine death – cell-based, luminescence, retest, dose response (AID 449756); format: functional; details: Rattus norvegicus;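 note: cell death triggered by IL-1 beta plus TNF-alpha plus IFN-gamma mixture; protective hits raise ATP signal compared with cytokine alone wells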
[8] = target: T2, Heat shock factor protein 1 (Mus musculus, UniProt P38532); test: decrease of HSF1-responsive luciferase luminescence – cell-based, NIH3T3, dose retest, confirmation (AID 2382); format: functional;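 note: NIH3T3 fibroblasts with HSF1-driven luciferase reporter stressed by proteasome inhibitor MG132; luminescence from HSF1-driven luciferase expression after 8 hours of MG132 stress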
T2 sequence (P38532 whole entry): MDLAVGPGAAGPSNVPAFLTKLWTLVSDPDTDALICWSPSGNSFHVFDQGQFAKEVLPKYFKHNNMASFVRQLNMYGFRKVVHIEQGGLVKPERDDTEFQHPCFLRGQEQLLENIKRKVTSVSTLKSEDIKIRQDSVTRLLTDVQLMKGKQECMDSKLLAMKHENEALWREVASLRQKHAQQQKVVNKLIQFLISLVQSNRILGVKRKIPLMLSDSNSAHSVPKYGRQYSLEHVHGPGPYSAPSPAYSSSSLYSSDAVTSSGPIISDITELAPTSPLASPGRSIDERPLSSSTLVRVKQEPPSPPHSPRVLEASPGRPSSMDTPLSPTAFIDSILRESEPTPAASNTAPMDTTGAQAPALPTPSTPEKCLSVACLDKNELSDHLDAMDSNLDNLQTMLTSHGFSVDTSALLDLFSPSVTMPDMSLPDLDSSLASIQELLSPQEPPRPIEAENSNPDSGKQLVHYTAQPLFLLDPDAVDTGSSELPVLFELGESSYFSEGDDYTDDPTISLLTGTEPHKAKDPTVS

[9] = NIH3T3 cell viability loss – ATP luminescence, mouse fibroblasts, counter-screen, dose response (AID 2010); format: functional, cell-based;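 note: cells exposed to compound for about 90 hours before reading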
[10] = Trypanosoma cruzi growth suppression in host cells – NIH3T3 host cells, beta-gal luminescence, confirmation (AID 2044); format: functional, cell-based;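 note: intracellular parasites grown in NIH/3T3 mouse fibroblasts as host cells; luminescent beta-galactosidase reporter signal from transgenic T. cruzi replicating inside host cells; inhibitors lower the luminescence signal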
[11] = Luminescence Cell-Based Dose Retest to Confirm Inhibitors of Cancer Stem Cells. [Related pubchem assays (depositor defined):AID2717, AID2721]; format: functional; details: Homo sapiens
[12] = system: Streptococcus sp. 'group A'; test: Streptococcus pyogenes SK(-)GAS viability under kanamycin – luminescence, BacTiterGlo, confirmation, counter-screen for streptokinase expression inhibitor project, dose response (AID 1900); format: functional, organism-based
[13] = system: Streptococcus; test: GAS UMAA2166 growth inhibition – luminescence, BacTiterGlo, counter-screen for streptokinase expression inhibitor project, dose response (AID 1915); format: functional, organism-based;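 note: potency for reduction of bacterial viability or growth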
[14] = target: T3, Streptokinase A (Streptococcus pyogenes serotype M1, UniProt P10520); test: viability-normalized secreted streptokinase activity reduction – plasminogen activation absorbance, OD405, dose response (AID 1914); format: functional, Streptococcus pyogenes M1 GAS;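 note: secreted streptokinase activity via plasminogen activation per viability signal from cell pellet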
T3 sequence (P10520 whole entry): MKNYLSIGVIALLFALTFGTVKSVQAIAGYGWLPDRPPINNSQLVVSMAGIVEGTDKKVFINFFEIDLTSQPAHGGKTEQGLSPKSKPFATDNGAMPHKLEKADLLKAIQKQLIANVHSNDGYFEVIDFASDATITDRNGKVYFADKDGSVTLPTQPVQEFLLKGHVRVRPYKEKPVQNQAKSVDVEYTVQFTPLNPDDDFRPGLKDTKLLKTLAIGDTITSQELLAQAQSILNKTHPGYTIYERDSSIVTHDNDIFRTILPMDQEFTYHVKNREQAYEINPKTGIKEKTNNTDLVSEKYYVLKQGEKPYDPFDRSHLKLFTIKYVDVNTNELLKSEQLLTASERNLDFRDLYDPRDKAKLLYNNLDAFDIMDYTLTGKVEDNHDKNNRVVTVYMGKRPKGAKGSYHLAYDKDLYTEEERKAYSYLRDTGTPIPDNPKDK

COc1ccc(-c2noc(CCCC(=O)NC3CCCC3)n2)cc1
EC50 [1]: 11 µM (active)
EC50 [2]: 14.1 µM (active)
EC50 [3]: 13.3 µM (active)

CN(CCO)S(=O)(=O)c1ccc2c(c1)C(=NNC(N)=O)c1cc(S(=O)(=O)N(C)CCO)ccc1-2
IC50 [4]: > 47.1 µM (inactive)
EC50 [5]: > 53 µM (inactive)

Cc1ccc2c(c1)c(-c1ccccc1)nc1nnnn12
EC50 [1]: 17.5 µM (active)
EC50 [2]: > 120 µM (not active)
EC50 [3]: 120 µM (active)

CCOc1ccc2c3c(c(=O)oc2c1OCC)CCCC3
CC50 [6]: 44 µM (active)

CCC(C)(C)c1ccc(Oc2ccc(NC(=O)COC(=O)C3=COCCO3)cc2)cc1
EC50 [1]: 6.08 µM (active)
EC50 [2]: 10.1 µM (active)
EC50 [3]: 8.92 µM (active)

CCC1(C)Cc2c(sc3nc(SC)nc(N)c23)CO1 (centres undefined)
CC50 [6]: 31 µM (active)

Cc1nn(Cc2ccc(F)cc2)c(C)c1NC(=O)c1cc(-c2ccc3c(c2)OCO3)on1
EC50 [1]: 15.7 µM (active)
EC50 [2]: > 120 µM (not active)
EC50 [3]: > 120 µM (not active)

CCCC(=O)Nc1nc(C)c(-c2csc(Nc3ccc(Cl)cc3)n2)s1
CC50 [6]: 7.41 µM (active)

CCc1ccccc1Nc1nc2ccccc2n1CC
EC50 [1]: > 120 µM (not active)
EC50 [2]: > 120 µM (not active)
EC50 [3]: 23 µM (active)

CCNC(=O)Nc1cc(S(=O)(=O)Nc2ccc(OC)cc2)ccc1N1CCOCC1
AC50 [7]: 3.3 µM (active)

C#CCN(C#N)c1nc(NCC)nc(NC(C)C)n1
EC50 [1]: 28.9 µM (active)
EC50 [2]: > 120 µM (not active)
EC50 [3]: 16 µM (active)

CCCCCCSc1cc(-c2nc3ccc(C)cn3c2NCc2ccccc2)ccc1OC
AC50 [7]: 6.87 µM (active)

COc1cccc(C(=O)N2CCCC(CCC(=O)NCc3ccc(F)c(F)c3)C2)c1 (centres undefined)
IC50 [4]: > 47.1 µM (inactive)
EC50 [5]: > 53 µM (inactive)

N#CCc1c(C#N)c(N)nc(N2CCCC2)c1C#N
CC50 [6]: 19.6 µM (active)

COc1ccc(-n2c(C)cc(-c3csc(NC(=O)c4ccc(S(=O)(=O)N(C)C)cc4)n3)c2C)cc1
EC50 [8]: > 195 µM (not active)

COc1ccccc1CNC(=O)c1ccc2[nH]c3nc4ccccc4c-3nc2c1
CC50 [6]: > 50 µM (active)

COc1ccc(CNc2nc3c(c(=O)[nH]c(=O)n3C)n2Cc2ccccc2C)cc1
EC50 [8]: > 195 µM (not active)

Cc1nnc(C)c2c(C)n(C(c3ccccc3)c3ccccc3)c(C)c12
EC50 [9]: > 60 µM (not active)
CC50 [6]: 18.3 µM (active)
EC50 [10]: 1.46 µM (active)

CC1(OC(=O)CCc2ccccc2)C(=O)C=C2C=C(c3ccc(C#N)cc3)N(CCc3ccccn3)C=C2C1=O (centres undefined)
EC50 [8]: > 195 µM (not active)

S=C(NCc1ccccc1)Nc1ccc(Cl)cc1
IC50 [4]: > 47.1 µM (inactive)
EC50 [5]: > 53 µM (inactive)

COc1ccc(C2C(C#N)=C(N)Oc3cc4c(cc32)OCO4)cc1 (centres undefined)
EC50 [1]: > 120 µM (not active)
EC50 [2]: 74 µM (active)
EC50 [3]: 10.9 µM (active)

CC(C)(C)n1nnnc1CN1CCC(NC(=O)NC2CCCCC2)CC1
EC50 [8]: 33.9 µM (active)

CCOC(=O)C1CCN(C(=O)CCc2c(C)nc3cc(-c4ccccc4)nn3c2C)CC1
EC50 [1]: 18.2 µM (active)
EC50 [2]: 27.1 µM (active)

CCOC(=O)c1c(C)n(C)c2ccc(OC)c(NC(=O)CN3CCSCC3)c12
EC50 [8]: > 195 µM (not active)

COc1ccc(CCNC(=O)c2ccc3c(c2)N(Cc2ccc(F)cc2)CCS3)cc1OC
CC50 [6]: 25.7 µM (active)

C[C@@H]1CN([C@H](C)CO)C(=O)c2cc(NC(=O)Nc3ccc(C(F)(F)F)cc3)ccc2O[C@H]1CN(C)S(=O)(=O)c1cccs1
AC50 [7]: 27 µM (active)

COc1ccc(CCNC(=O)Cc2cccs2)cc1
EC50 [8]: > 195 µM (not active)

CCOc1ccccc1CNC(=O)c1nn(C)c2c1CS(=O)(=O)c1ccccc1-2
EC50 [1]: > 120 µM (not active)
EC50 [2]: > 120 µM (not active)
EC50 [3]: > 120 µM (not active)

COc1cccc(OC)c1CC1SC(=O)NC1=O (centres undefined)
CC50 [6]: 40.2 µM (active)

Cc1cc(C)c2c(C)n[nH]c2n1
AC50 [7]: > 260 µM (inactive)

O=C1N[C@@H](Cc2ccccc2)C(=O)N2[C@@H]3N(S(=O)(=O)c4ccc(F)cc4)c4ccccc4[C@]3(Br)C[C@@H]12
CC50 [6]: > 50 µM (active)

COc1cccc(C2[C@H](C)C3(CCN2C)OCCO3)c1 (some centres undefined)
EC50 [1]: > 120 µM (not active)
EC50 [2]: > 120 µM (not active)
EC50 [3]: > 120 µM (not active)

COc1cc(OC)c2c3c(c(C4CCCCC4)nc2c1)CCC3
CC50 [6]: 30.1 µM (active)

COc1cc(OC)cc(C(=O)NCC(=O)OCc2cc(=O)oc3cc(OC)ccc23)c1
IC50 [4]: > 47.1 µM (inactive)
EC50 [5]: > 53 µM (inactive)

O=C(c1ccco1)N1N=C(c2ccc(Br)cc2)CC1c1ccco1 (centres undefined)
AC50 [7]: 19.8 µM (active)

Cc1ccc(C)c(C(=O)OCC(=O)Nc2cccc(S(=O)(=O)NC3=NCCCCC3)c2)c1
CC50 [6]: 20.6 µM (active)

C/C=C/c1ccc(OCC(=O)Nc2ccc(OC)c(OC)c2)c(OC)c1
EC50 [8]: > 195 µM (not active)

O=C(c1ccccc1)c1nc2ccccc2n(CCCn2c(=O)c(C(=O)c3ccccc3)nc3ccccc32)c1=O
EC50 [1]: 33.3 µM (active)
EC50 [2]: 34.5 µM (active)
EC50 [3]: > 120 µM (not active)

CCOC(=O)c1ccc(NC(=O)c2cc3c(C)nn(-c4ccccc4Cl)c3s2)s1
EC50 [1]: 15.3 µM (active)
EC50 [2]: > 120 µM (not active)
EC50 [3]: > 120 µM (not active)

Cc1cc(C(=O)COC(=O)c2ccco2)c(C)n1Cc1ccco1
EC50 [8]: < 0.16 µM (active)

CC1(C)C[C@@H]2C[C@@](C)(CN2C(=O)c2cc(COc3cccc(C(F)(F)F)c3)on2)C1
AC50 [11]: 2.23 µM (active)
AC50 [7]: 11.6 µM (active)

Cc1nc(N)sc1-c1csc(Nc2ccc(Cl)cn2)n1
CC50 [6]: 7.95 µM (active)

Cc1ccc(C)c2sc(N3CCN(C(=O)c4ccc([N+](=O)[O-])o4)CC3)nc12
EC50 [12]: 2.67 µM (active)
EC50 [13]: 9.98 µM (active)
EC50 [14]: 2.59 µM (active)
CC50 [6]: 16.9 µM (active)

COc1cccc(CC(=O)N[C@@H](CCSC)c2nc3ccccc3[nH]2)c1
EC50 [8]: > 195 µM (not active)

CCOC(=O)c1c(C)[nH]c(C)c1S(=O)(=O)NCCc1cccs1
EC50 [8]: > 195 µM (not active)

COc1cc(NS(=O)(=O)c2csc(C(N)=O)c2)cc(OC)c1
EC50 [8]: > 195 µM (not active)

Reference: ChEMBL document CHEMBL1201862, “PubChem BioAssay data set” (2004)
